Legend:
Experiment in all cases: Kinase profiling
Assay type in all cases: biochemical
GSG2 = biological target: T1, GSG2 (Homo sapiens, UniProt Q8TF76)
T1 construct: purchased ProQinase (Freiburg, Germany)
T1 sequence (Q8TF76 1-798): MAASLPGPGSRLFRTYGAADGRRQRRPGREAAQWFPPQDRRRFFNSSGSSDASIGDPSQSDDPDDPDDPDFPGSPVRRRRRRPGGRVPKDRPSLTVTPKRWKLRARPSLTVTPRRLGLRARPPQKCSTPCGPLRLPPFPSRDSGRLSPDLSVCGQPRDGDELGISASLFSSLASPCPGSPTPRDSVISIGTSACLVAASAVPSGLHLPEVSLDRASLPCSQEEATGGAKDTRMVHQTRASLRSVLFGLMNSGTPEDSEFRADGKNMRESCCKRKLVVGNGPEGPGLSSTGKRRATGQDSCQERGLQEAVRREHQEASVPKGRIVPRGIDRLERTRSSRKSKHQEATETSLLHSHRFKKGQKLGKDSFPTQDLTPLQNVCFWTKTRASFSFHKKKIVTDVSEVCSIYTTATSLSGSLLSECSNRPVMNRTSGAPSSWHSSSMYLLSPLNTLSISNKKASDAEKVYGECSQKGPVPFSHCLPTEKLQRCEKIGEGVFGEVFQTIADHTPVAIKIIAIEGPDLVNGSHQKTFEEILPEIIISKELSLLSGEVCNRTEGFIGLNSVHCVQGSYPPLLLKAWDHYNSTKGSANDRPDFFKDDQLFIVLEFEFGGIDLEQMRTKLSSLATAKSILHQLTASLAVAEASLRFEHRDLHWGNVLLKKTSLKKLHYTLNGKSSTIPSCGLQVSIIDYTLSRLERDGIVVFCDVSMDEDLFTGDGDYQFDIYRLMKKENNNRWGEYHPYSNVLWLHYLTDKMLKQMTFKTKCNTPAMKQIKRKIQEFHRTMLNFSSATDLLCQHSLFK
Experimental: (§1) The analysis was performed by ProQinase (Freiburg, Germany).

NEK11 = biological target: T2, NEK11 (Homo sapiens, UniProt Q8NG66)
T2 construct: purchased ProQinase (Freiburg, Germany)
T2 sequence (Q8NG66 1-645): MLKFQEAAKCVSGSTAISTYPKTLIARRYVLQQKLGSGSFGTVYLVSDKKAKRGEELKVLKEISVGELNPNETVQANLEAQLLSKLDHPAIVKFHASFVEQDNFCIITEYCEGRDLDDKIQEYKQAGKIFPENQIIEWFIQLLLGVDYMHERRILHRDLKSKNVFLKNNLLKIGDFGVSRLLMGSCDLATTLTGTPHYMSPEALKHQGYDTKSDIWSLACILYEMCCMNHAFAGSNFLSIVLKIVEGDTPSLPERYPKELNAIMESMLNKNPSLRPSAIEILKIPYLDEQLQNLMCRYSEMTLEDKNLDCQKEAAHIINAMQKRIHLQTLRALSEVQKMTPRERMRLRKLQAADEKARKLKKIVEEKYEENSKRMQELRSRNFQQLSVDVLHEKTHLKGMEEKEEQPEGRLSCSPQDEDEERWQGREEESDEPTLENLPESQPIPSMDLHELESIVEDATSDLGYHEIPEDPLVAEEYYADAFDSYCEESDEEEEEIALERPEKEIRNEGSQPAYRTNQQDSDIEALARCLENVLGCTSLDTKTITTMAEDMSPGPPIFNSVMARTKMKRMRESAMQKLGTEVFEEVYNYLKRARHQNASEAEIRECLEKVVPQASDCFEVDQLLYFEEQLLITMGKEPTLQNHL
Experimental: as §1

SGK3 = biological target: T3, SGK3 (Homo sapiens, UniProt Q96BR1)
T3 construct: purchased ProQinase (Freiburg, Germany)
T3 sequence (Q96BR1 1-496): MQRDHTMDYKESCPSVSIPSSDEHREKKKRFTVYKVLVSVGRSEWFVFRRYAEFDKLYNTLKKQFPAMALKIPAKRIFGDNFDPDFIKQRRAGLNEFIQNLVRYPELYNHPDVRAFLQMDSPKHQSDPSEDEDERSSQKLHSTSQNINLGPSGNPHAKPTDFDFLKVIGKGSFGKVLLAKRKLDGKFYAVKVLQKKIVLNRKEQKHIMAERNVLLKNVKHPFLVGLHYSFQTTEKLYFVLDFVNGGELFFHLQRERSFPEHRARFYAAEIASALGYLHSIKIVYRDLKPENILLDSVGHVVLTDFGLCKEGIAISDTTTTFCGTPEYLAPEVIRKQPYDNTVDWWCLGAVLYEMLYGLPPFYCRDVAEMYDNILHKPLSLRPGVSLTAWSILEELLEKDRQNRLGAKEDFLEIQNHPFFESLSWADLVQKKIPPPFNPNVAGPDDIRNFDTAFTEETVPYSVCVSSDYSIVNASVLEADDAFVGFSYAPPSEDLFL
Experimental: as §1

`O=C(Cc1ccccc1)Nc1ccc(F)c(Nc2ccc3c(c2)CCCCC3=O)c1` [Compound 100] was tested. Which Residual activity (GSG2; 1.0E-05 M) did it give?
Its Residual activity is 78 % of control.

And the Residual activity (GSG2; 1.0E-06 M)?
The Residual activity was 92 % of control.

What about the Residual activity (NEK11; 1.0E-05 M) of the same compound?
The Residual activity was 110 % of control.

What about the Residual activity (NEK11; 1.0E-06 M) of the same compound?
Its Residual activity is 97 % of control.

What about the Residual activity (SGK3; 1.0E-05 M) of the same compound?
Its Residual activity is 98 % of control.

And the Residual activity (SGK3; 1.0E-06 M)?
The Residual activity was 103 % of control.

With `O=C(Nc1ccc(F)c(Nc2ccc3c(c2)CCCCC3=O)c1)c1cccc(F)c1` [Compound 109] as the compound, how does the Residual activity (GSG2; 1.0E-05 M) read?
The Residual activity was 68 % of control.

And the Residual activity (GSG2; 1.0E-06 M)?
The Residual activity was 93 % of control.

What about the Residual activity (NEK11; 1.0E-05 M) of the same compound?
Its Residual activity is 104 % of control.

And the Residual activity (NEK11; 1.0E-06 M)?
The Residual activity was 86 % of control.

And the Residual activity (SGK3; 1.0E-05 M)?
Its Residual activity is 97 % of control.

And the Residual activity (SGK3; 1.0E-06 M)?
The Residual activity was 96 % of control.
